Source: patent US20150079000A1, “Labelled Quinoxaline Derivatives as Multimodal Radiopharmaceuticals and Their Precursors” (INSTITUT NATIONAL DE LA SANTET DE LA RECHERCHE MEDICALE, priority 2012, published 2015)

How the values were obtained:
[1] = Metabolism of compound [125I](1); assay type: in vivo, mice
Protocol: 24 primary melanoma bearing mice were intravenously injected with 2.2 MBq of [^1251](1) and sacrificed 1 h, 3 h, 6 h, 24 h, 72 h and 10 days after tracer injection. To determine the metabolic stability of [^1251](1), blood, tumour, eyes, liver, kidney and urine samples were collected at each time point […]. Faeces were collected between 0-24 h and 24-48 h. Blood was immediately diluted in 5 mL of methanol/NH4OH 99.8:0.2 and centrifuged for 5 min at 3,000 rpm. Tumour, eyes, liver, kidneys and faeces were suspended in 5 mL of methanol/NH4OH 99.8:0.2, homogenized using GentleMACS™ dissociator (Miltenyi Biotec, Bergisch Gladbach, Germany) and centrifuged for 5 min at 3,000 rpm (repeated 2 times). Urines were analysed without any treatment. The extraction efficiency was determined by measuring the radioactivity of supernatants and precipitates. Supernatants were passed through a 0.22 μm Millipore filter and then concentrated to a volume between 200 and 500 μL before injection (duplicate) onto the analytical HPLC(C18 column; solvent A: H2O (0.2% NH4OH); solvent B: MeOH (0.2% NH4OH); Gradient elution: 0-5 min: 90 to 70% of A (Q=0.5 mL·min^−1); 5-30 min: 70 to 20% of A (Q=0.9 mL·min^−1); 30-32 min: 10% of A (Q=0.9 mL·min^−1)).

[2] = tested on: B16 murine melanoma tumours; assay: Ex vivo biodistribution study for compound [125I](1); assay type: in vivo, C57BL/6J mice
Protocol: Twenty four B16BL6 primary melanoma bearing mice were intravenously injected with 2.2 MBq of [^1251]1 and sacrificed 1 h, 3 h, 6 h, 24 h, 72 h and 10 days after tracer injection (n=4/time point). Tumours and major organs and tissues were promptly excised, harvested, weighted and their radioactivity counted using a calibrated γ-counter with a […] energy window. After radioactive decay correction, results were expressed as percentage of injected dose per gram of tissue (% ID/g).

CCN(CCNC(=O)c1cnc2cc([125I])ccc2n1)CCOCCOCCOCCF [[^125I](1)]
% of radioactivity ([1]; Blood, 1 h after [125I](1) injection): 2.0 ± 2.8%
% of radioactivity ([1]; Blood, 3 h after [125I](1) injection): 0.0 ± 0.0%
% of radioactivity ([1]; Blood, 6 h after [125I](1) injection): 3.5 ± 4.9%
% of radioactivity ([1]; Eyes, 1 h after [125I](1) injection): 90.5 ± 0.7%
% of radioactivity ([1]; Eyes, 3 h after [125I](1) injection): 94.5 ± 2.1%
% of radioactivity ([1]; Eyes, 6 h after [125I](1) injection): 96.0 ± 5.7%
% of radioactivity ([1]; Eyes, 24 h after [125I](1) injection): 90.0 ± 2.8%
% of radioactivity ([1]; Eyes, 72 h after [125I](1) injection): 96.5 ± 4.9%
% of radioactivity ([1]; Eyes, 10 d after [125I](1) injection): 100.0 ± 0.0%
% of radioactivity ([1]; Feces, (grid: 3 h; faeces collected 24-48 h)): 2.5 ± 0.7%
% of radioactivity ([1]; Feces, first value column (grid: 1 h; faeces collected 0-24 h)): 5.0 ± 0.0%
% of radioactivity ([1]; Kidney, 1 h after [125I](1) injection): 12.5 ± 2.1%
% of radioactivity ([1]; Kidney, 3 h after [125I](1) injection): 6.1 ± 2.9%
% of radioactivity ([1]; Kidney, 6 h after [125I](1) injection): 0.0 ± 0.0%
% of radioactivity ([1]; Liver, 1 h after [125I](1) injection): 27.5 ± 0.7%
% of radioactivity ([1]; Liver, 3 h after [125I](1) injection): 24.0 ± 4.2%
% of radioactivity ([1]; Liver, 6 h after [125I](1) injection): 8.5 ± 0.7%
% of radioactivity ([1]; Liver, 24 h after [125I](1) injection): 0.0 ± 0.0%
% of radioactivity ([1]; Tumour, 1 h after [125I](1) injection): 87.0 ± 1.4%
% of radioactivity ([1]; Tumour, 3 h after [125I](1) injection): 81.0 ± 1.4%
% of radioactivity ([1]; Tumour, 6 h after [125I](1) injection): 77.0 ± 0.0%
% of radioactivity ([1]; Tumour, 24 h after [125I](1) injection): 92.5 ± 9.2%
% of radioactivity ([1]; Tumour, 72 h after [125I](1) injection): 91.5 ± 3.5%
% of radioactivity ([1]; Tumour, 10 d after [125I](1) injection): 100.0 ± 0.0%
% of radioactivity ([1]; Urine, 1 h after [125I](1) injection): 12.6 ± 0.5%
% of radioactivity ([1]; Urine, 3 h after [125I](1) injection): 0.0 ± 0.0%
% of radioactivity ([1]; Urine, 6 h after [125I](1) injection): 0.0 ± 0.0%
% of radioactivity ([1]; Urine, 24 h after [125I](1) injection): 0.0 ± 0.0%
% of radioactivity ([1]; Urine, 72 h after [125I](1) injection): 0.0 ± 0.0%
% ID/g Adipose ([2]; 1 h p.i.): 0.61 ± 0.01 % ID/g
% ID/g Blood ([2]; 1 h p.i.): 0.97 ± 0.07 % ID/g
% ID/g Bones ([2]; 1 h p.i.): 0.79 ± 0.09 % ID/g
% ID/g Brain ([2]; 1 h p.i.): 0.27 ± 0.03 % ID/g
% ID/g Ceacum ([2]; 1 h p.i.): 4.97 ± 3.01 % ID/g
% ID/g Colon ([2]; 1 h p.i.): 4.51 ± 4.40 % ID/g
% ID/g Heart ([2]; 1 h p.i.): 1.17 ± 0.07 % ID/g
% ID/g Kidney ([2]; 1 h p.i.): 4.75 ± 0.71 % ID/g
% ID/g Liver ([2]; 1 h p.i.): 6.33 ± 1.69 % ID/g
% ID/g Lung ([2]; 1 h p.i.): 3.12 ± 0.42 % ID/g
% ID/g Muscle ([2]; 1 h p.i.): 0.55 ± 0.16 % ID/g
% ID/g Pancreas ([2]; 1 h p.i.): 2.96 ± 0.15 % ID/g
% ID/g Skin ([2]; 1 h p.i.): 1.04 ± 0.06 % ID/g
% ID/g Small intestine ([2]; 1 h p.i.): 16.68 ± 10.70 % ID/g
% ID/g Spleen ([2]; 1 h p.i.): 2.14 ± 0.20 % ID/g
% ID/g Stomach ([2]; 1 h p.i.): 9.2 ± 1.49 % ID/g
% ID/g Testes ([2]; 1 h p.i.): 0.68 ± 0.19 % ID/g
% ID/g Adipose ([2]; 3 h p.i.): 0.36 ± 0.05 % ID/g
% ID/g Blood ([2]; 3 h p.i.): 0.82 ± 0.05 % ID/g
% ID/g Bones ([2]; 3 h p.i.): 0.48 ± 0.03 % ID/g
% ID/g Brain ([2]; 3 h p.i.): 0.15 ± 0.01 % ID/g
% ID/g Ceacum ([2]; 3 h p.i.): 25.73 ± 7.88 % ID/g
% ID/g Colon ([2]; 3 h p.i.): 21.19 ± 18.02 % ID/g
% ID/g Heart ([2]; 3 h p.i.): 0.77 ± 0.05 % ID/g
% ID/g Kidney ([2]; 3 h p.i.): 3.14 ± 1.27 % ID/g
% ID/g Liver ([2]; 3 h p.i.): 3.37 ± 0.14 % ID/g
% ID/g Lung ([2]; 3 h p.i.): 2.14 ± 0.27 % ID/g
% ID/g Muscle ([2]; 3 h p.i.): 0.30 ± 0.04 % ID/g
% ID/g Pancreas ([2]; 3 h p.i.): 1.48 ± 0.07 % ID/g
% ID/g Skin ([2]; 3 h p.i.): 1.34 ± 0.72 % ID/g
% ID/g Small intestine ([2]; 3 h p.i.): 4.16 ± 0.70 % ID/g
% ID/g Spleen ([2]; 3 h p.i.): 2.37 ± 2.58 % ID/g
% ID/g Stomach ([2]; 3 h p.i.): 4.53 ± 0.94 % ID/g
% ID/g Testes ([2]; 3 h p.i.): 0.54 ± 0.03 % ID/g
% ID/g Adipose ([2]; 6 h p.i.): 0.19 ± 0.06 % ID/g
% ID/g Blood ([2]; 6 h p.i.): 0.62 ± 0.20 % ID/g
% ID/g Bones ([2]; 6 h p.i.): 0.30 ± 0.10 % ID/g
% ID/g Brain ([2]; 6 h p.i.): 0.08 ± 0.03 % ID/g
% ID/g Ceacum ([2]; 6 h p.i.): 23.31 ± 16.47 % ID/g
% ID/g Colon ([2]; 6 h p.i.): 15.92 ± 9.97 % ID/g
% ID/g Heart ([2]; 6 h p.i.): 0.46 ± 0.17 % ID/g
% ID/g Kidney ([2]; 6 h p.i.): 1.56 ± 0.82 % ID/g
% ID/g Liver ([2]; 6 h p.i.): 2.02 ± 0.64 % ID/g
% ID/g Lung ([2]; 6 h p.i.): 1.04 ± 0.37 % ID/g
% ID/g Muscle ([2]; 6 h p.i.): 0.17 ± 0.07 % ID/g
% ID/g Pancreas ([2]; 6 h p.i.): 0.65 ± 0.18 % ID/g
% ID/g Skin ([2]; 6 h p.i.): 0.62 ± 0.31 % ID/g
% ID/g Small intestine ([2]; 6 h p.i.): 2.23 ± 1.35 % ID/g
% ID/g Spleen ([2]; 6 h p.i.): 6.45 ± 8.15 % ID/g
% ID/g Stomach ([2]; 6 h p.i.): 7.39 ± 4.08 % ID/g
% ID/g Testes ([2]; 6 h p.i.): 0.36 ± 0.08 % ID/g
% ID/g Adipose ([2]; 24 h p.i.): 0.028 ± 0.00 % ID/g
% ID/g Blood ([2]; 24 h p.i.): 0.06 ± 0.01 % ID/g
% ID/g Bones ([2]; 24 h p.i.): 0.03 ± 0.00 % ID/g
% ID/g Brain ([2]; 24 h p.i.): 0.01 ± 0.01 % ID/g
% ID/g Ceacum ([2]; 24 h p.i.): 0.41 ± 0.13 % ID/g
% ID/g Colon ([2]; 24 h p.i.): 0.69 ± 0.23 % ID/g
% ID/g Heart ([2]; 24 h p.i.): 0.16 ± 0.06 % ID/g
% ID/g Kidney ([2]; 24 h p.i.): 0.15 ± 0.02 % ID/g
% ID/g Liver ([2]; 24 h p.i.): 0.46 ± 0.10 % ID/g
% ID/g Lung ([2]; 24 h p.i.): 0.08 ± 0.01 % ID/g
% ID/g Muscle ([2]; 24 h p.i.): 0.02 ± 0.00 % ID/g
% ID/g Pancreas ([2]; 24 h p.i.): 0.05 ± 0.01 % ID/g
% ID/g Skin ([2]; 24 h p.i.): 0.17 ± 0.00 % ID/g
% ID/g Small intestine ([2]; 24 h p.i.): 0.12 ± 0.03 % ID/g
% ID/g Spleen ([2]; 24 h p.i.): 0.06 ± 0.01 % ID/g
% ID/g Stomach ([2]; 24 h p.i.): 0.54 ± 0.25 % ID/g
% ID/g Testes ([2]; 24 h p.i.): 0.03 ± 0.01 % ID/g
% ID/g Adipose ([2]; 72 h p.i.): 0.02 ± 0.00 % ID/g
% ID/g Bones ([2]; 72 h p.i.): 0.02 ± 0.01 % ID/g
% ID/g Brain ([2]; 72 h p.i.): 0.01 ± 0.00 % ID/g
% ID/g Ceacum ([2]; 72 h p.i.): 0.33 ± 0.29 % ID/g
% ID/g Colon ([2]; 72 h p.i.): 0.25 ± 0.10 % ID/g
% ID/g Heart ([2]; 72 h p.i.): 0.08 ± 0.02 % ID/g
% ID/g Kidney ([2]; 72 h p.i.): 0.24 ± 0.04 % ID/g
% ID/g Liver ([2]; 72 h p.i.): 0.08 ± 0.00 % ID/g
% ID/g Lung ([2]; 72 h p.i.): 0.05 ± 0.01 % ID/g
% ID/g Muscle ([2]; 72 h p.i.): 0.02 ± 0.00 % ID/g
% ID/g Pancreas ([2]; 72 h p.i.): 0.03 ± 0.01 % ID/g
% ID/g Skin ([2]; 72 h p.i.): 0.50 ± 0.26 % ID/g
% ID/g Small intestine ([2]; 72 h p.i.): 0.07 ± 0.03 % ID/g
% ID/g Spleen ([2]; 72 h p.i.): 0.52 ± 0.96 % ID/g
% ID/g Stomach ([2]; 72 h p.i.): 0.16 ± 0.05 % ID/g
% ID/g Testes ([2]; 72 h p.i.): 0.02 ± 0.00 % ID/g
% ID/g Adipose ([2]; 10 d p.i.): 0.01 ± 0.01 % ID/g
% ID/g Bones ([2]; 10 d p.i.): 0.01 ± 0.01 % ID/g
% ID/g Brain ([2]; 10 d p.i.): 0.00 ± 0.00 % ID/g
% ID/g Ceacum ([2]; 10 d p.i.): 0.02 ± 0.02 % ID/g
% ID/g Colon ([2]; 10 d p.i.): 0.02 ± 0.01 % ID/g
% ID/g Heart ([2]; 10 d p.i.): 0.03 ± 0.01 % ID/g
% ID/g Kidney ([2]; 10 d p.i.): 0.04 ± 0.03 % ID/g
% ID/g Liver ([2]; 10 d p.i.): 0.01 ± 0.00 % ID/g
% ID/g Lung ([2]; 10 d p.i.): 0.01 ± 0.01 % ID/g
% ID/g Muscle ([2]; 10 d p.i.): 0.01 ± 0.06 % ID/g
% ID/g Pancreas ([2]; 10 d p.i.): 0.02 ± 0.03 % ID/g
% ID/g Skin ([2]; 10 d p.i.): 0.05 ± 0.06 % ID/g
% ID/g Small intestine ([2]; 10 d p.i.): 0.01 ± 0.00 % ID/g
% ID/g Spleen ([2]; 10 d p.i.): 0.23 ± 0.41 % ID/g
% ID/g Stomach ([2]; 10 d p.i.): 0.03 ± 0.01 % ID/g
% ID/g Testes ([2]; 10 d p.i.): 0.00 ± 0.00 % ID/g
